These results are taken from article PMC4398638 (Bioorganic & medicinal chemistry, 2015).

This series deals with WI-38 human lung fibroblasts (normal) cell line (FR−). As to the kind of experiment: MTT cytotoxicity assay, WI-38 cells. It is filed as cell-based. As to conditions: normal (WI-38, FR−) cells versus FR-overexpressing cancer cells / free drug. (Tetrazolium dyes change colour on reduction, which living cells bring about.)

For the molecule `CC(=O)O[C@@]12CO[C@@H]1C[C@H](O)[C@@]1(C)C(=O)[C@H](OC(=O)C3CC3)C3=C(C)[C@@H](OC(=O)[C@H](OC(=O)Cc4ccccc4SSC(C)CCC(=O)NCCCOCCOCCOCCCNC(=O)c4ccc(CC5CCCCCc6c5nnn6CCOCCOCCOCCNC(=O)CC[C@H](NC(=O)CC[C@H](NC(=O)c5ccc(NCc6cnc7nc(N)[nH]c(=O)c7n6)cc5)C(=O)O)C(=O)N[C@@H](CCCNC(=N)N)C(=O)O)cc4)[C@H](C=C(C)C)NC(=O)OC(C)(C)C)C[C@@](O)([C@@H](OC(=O)c4ccccc4)[C@H]21)C3(C)C` (stereo partly shown) [Conjugate 1], the “decrease in cytotoxicity against normal human cells” value is recorded as > 1,000 fold.
